Results from patent US6287813A, “Antibiotic-based gene regulation system” (Cistronics Cell Technology GmbH, priority 1999, dated 2001).

Tests used:
[1] = target: T1, TET-responsive system (tTA/PhCMV*-1) (Escherichia coli, UniProt P04483); assay: SEAP reporter assay, CHO-TWIN clones transfected with pMF111 (PhCMV*-1-SEAP); format: cell-based; settings: for SEAP Production (%): 48 h, no inducer = 100
T1 construct: expressed in transfected cells; host or cells: CHO-K1 clones CHO-TWIN195 and CHO-TWIN1108 (pTWIN1)
T1 sequence (P04483 whole entry, added parts left off): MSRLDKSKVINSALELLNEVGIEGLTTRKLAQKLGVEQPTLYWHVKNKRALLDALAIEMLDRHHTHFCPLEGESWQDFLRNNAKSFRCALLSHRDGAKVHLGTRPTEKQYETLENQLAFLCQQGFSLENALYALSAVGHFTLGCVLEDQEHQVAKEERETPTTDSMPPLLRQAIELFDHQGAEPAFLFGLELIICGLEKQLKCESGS
Text: (§1) pTWIN contains both PIT and tTA in a PSV40 -driven dicistronic configuration. For construction of pTWIN, PIT was first transferred from pMF156 as an EcoRI/HindIII fragment to the corresponding sites of pSBC-1 (EcoRI/HindIII; resulting in pMF167) before the PIT expression unit could be fused to the tTA expression unit contained on pSBC2-tTA (Fussenegger et al., 1997, supra) via SspI/NotI sites. Thus, pTWIN contains the dicistronic PSV40 -PIT-IRES-tTA-pA expression cassette.
(§2) Chinese hamster ovary cells (CHO-K1, ATCC: CCL 61), Baby hamster kidney cells (BHK-21, ATCC: CRL-8544), and HeLa cells (ATCC: CRL-7923) as well as stable cell lines CHO-PIT1, CHO-PIT2, CHO-TWIN195, CHO-TWIN1108 and CHO-PIT1-SEAP were cultured as described before (Fussenegger et al., 1998, Nat. Biotechnol. 16,468-472) in the presence of appropriate antibiotics: G418 400 μg/ml; zeocin 100 μg/ml. Optimized CaPO4 protocols were used for high efficiency transient transfection of all cell lines (id). Transient transfected cells were routinely analyzed after 48 h for GFP or SEAP expression using fluorescence microscopy and p-nitrophenolphosphate-based light absorbance timecourse, respectively, as described before (Fussenegger et al., 1998, Nat. Biotechnol. 16, 468-472; Berger et al., 1988, Gene 66, 1-10 b). For construction of stable CHO-PIT and CHO-TWIN cell lines, CHO-K1 was cotransfected either with pMF156 or pTWIN1 and pSV2neo carrying the G418 resistance gene. CHO-PIT1-SEAP was constructed by cotransfection of pMF172 and pZeoSV2 (Invitrogen). For assessment of dose-response characteristics of PPIR -regulated gene expression, CHO-PIT1-SEAP were cultured at cell densities of 150,000/ml for 48 at various PI concentrations. The mixed populations were cloned using FACS-mediated single-cell-sorting (FACStar^Plus; Beckton Dickinson). Gel retardation assay were performed as described (Salah-Bey et al., 1995, supra) using Pip purified from an overproducing strain of E. coli. Pip (0.02 pmol) was titrated with a range of antibiotic concentrations in a reaction volume of 20 μl. Protein solutions were pre-incubated at room temperature for 15 min. in the absence or presence of PI or its derivative quinupristin in a buffer containing 10 mM Tris (pH 7.8), 10 mM MgCl2, 300 mM NaCl, 2 mM DTT and 10% glycerol. An EcoRI-HindII PPTR fragment (0.02 pmol) containing three Pip binding sites (radiolabelled using α-^32 P)dATP was added and incubated for 15 min. To minimize nonspecific protein binding and increase protein stability, 2 μg of poly dIdC and 20 μg BSA were included in the incubation mix. Protein-DNA complexes were separated on 5% polyacrylamide,TBE gels and visualized by autoradiography.
(§3) CHO-TWIN195 and CHO-TWIN1108 were transfected under identical conditions with the isogenic plasmids containing the SEAP gene under control of the tTA-activated promoter PhCMV*-1 (pMF111) or the PIT-activated promoter PPIR (pMF172). Transfected cells were grown for 48 h in the presence or absence of either antibiotic prior to assay of SEAP activity.
(§4) Table 6: Comparison of the regulation performance of streptogramin- (PI and virginiamycin; VIR) and tetracycline-based gene regulation systems. The two cell clones CHO-TWIN195 and CHO-TWIN1108 containing both pristinamycin- and tetracycline-dependent transactivators were transfected with either the streptogramin-responsive or the TET-responsive SEAP reporter plasmids pMF172 (PPIR -SEAP) and pMF111 (PhCMV*-1 -SEAP), respectively, and the relative SEAP production was assessed. SEAP production values are normalized by SEAP activities under the antibiotic-free, active promoter conditions as follows: pMF172 in CHO-TWIN195:1.7 mU/ml; in CHO-TWIN1108 : 1.8 mU/ml. pMF111 in CHO-TWIN195 : 18.6 mU/ml; in CHO-TWIN1108 : 19.2 mU/ml.
(§5) Table 7: Compatibility of the streptogramin- and tetracycline-based gene regulation systems. Crossregulation of pristinamycin (PI) and the tetracyclines doxycycline (DOX) and tetracycline (TET). […]

[2] = target: T2, PIT/PPIR system (Streptomyces coelicolor, UniProt Q9ADN3); assay: SEAP reporter assay, CHO-TWIN clones transfected with pMF172 (PPIR-SEAP); format: cell-based; settings: for activity at 2 µg/mL / activity at 10 µg/mL: 48 h, CHO-TWIN1108 + pMF172, crossregulation, read-out: SEAP Production (%); for activity at 10 µg/mL: 10 μg/ml
T2 construct: pMF156/pTWIN in CHO cells, PPIR-SEAP or GFP reporter
T2 sequence (Q9ADN3 1-252): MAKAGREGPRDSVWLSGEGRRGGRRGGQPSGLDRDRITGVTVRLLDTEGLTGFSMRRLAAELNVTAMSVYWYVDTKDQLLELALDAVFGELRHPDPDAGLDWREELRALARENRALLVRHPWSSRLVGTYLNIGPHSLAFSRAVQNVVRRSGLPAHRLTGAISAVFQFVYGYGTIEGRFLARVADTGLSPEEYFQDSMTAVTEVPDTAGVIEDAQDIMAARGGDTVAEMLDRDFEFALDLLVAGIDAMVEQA
Text: as §1, §2, §3, §4, §5

[3] = target: T3, Pip/PPTR (Streptomyces coelicolor, UniProt Q9ADN3); assay: Gel retardation assay of Pip/PPTR interaction; format: binding; settings: Pip 0.2 pmol titrated with 50 pmol to 0.01 pmol antibiotic
T3 construct: gel retardation with ptr promoter DNA (PPTR) of S. pristinaespiralis
T3 sequence (Q9ADN3 1-252): T2 sequence (Q9ADN3 1-252)
Text: FIG. 1: Gel retardation assay showing Pip/PPTR interaction. PPTR of S. pristinaespiralis contains 3 dyad symmetrical binding sites (lane A; PPTR in the absence of Pip) all of which are saturated at relatively large amounts of purified Pip (0.4 pmol; […]) resulting in a single shifted band. Smaller amounts of Pip (0.02 pmol) presented an intermediate situation in which all possible permutations of site occupancy are represented in three distinct retarded bands (lane C). Pip (0.2 pmol lanes D-M) was titrated with a range of PI from 50 pmol to 0.01 pmol (lanes D-H; D: 50 pmol; E: 10 pmol; F: 1 pmol; G: 0.1 pmol; H: 0.01 pmol). […]
Chinese hamster ovary cells (CHO-K1, ATCC: CCL 61), Baby hamster kidney cells (BHK-21, ATCC: CRL-8544), and HeLa cells (ATCC: CRL-7923) as well as stable cell lines CHO-PIT1, CHO-PIT2, CHO-TWIN195, CHO-TWIN1108 and CHO-PIT1-SEAP were cultured as described before (Fussenegger et al., 1998, Nat. Biotechnol. 16,468-472) in the presence of appropriate antibiotics: G418 400 μg/ml; zeocin 100 μg/ml. […] Transient transfected cells were routinely analyzed after 48 h for GFP or SEAP expression using fluorescence microscopy and p-nitrophenolphosphate-based light absorbance timecourse, respectively, as described before (Fussenegger et al., 1998, Nat. Biotechnol. 16, 468-472; Berger et al., 1988, Gene 66, 1-10 b). […]

[4] = target: T2, PIT/PPIR system; assay: SEAP reporter assay, CHO-K1 cotransfected with pMF156 (PIT) and pMF172 (PPIR-SEAP); format: cell-based
Method: PIT, the fusion protein of Pip and the VP16 C-terminal transactivation domain of Herpes simplex (Triezenberg et al., 1988, Genes Dev. 2, 718-729) was constructed by amplifying the S. coelicolor Pip from pGemT::Epip4 with oligos:
as §2
Five different sources of pristinamycin were used: The two therapeutic forms Pyostacin™ and Synercid™, pristinamycin discs, and the single compounds pristinamycin I (PI) and pristinamycin II (PII). Pyostacin™ pills (500 mg) were ground in a mortar and solubilized in DMSO or water at a stock concentration of 50 mg/ml. Synercid™ (RP 59500; Lot Nr. CB06253) was provided by Aventis in injection-ready vials containing 500 mg lyophilized antibiotic which was reconstituted in 5 ml of 5% glucose solution and frozen at -20° C. Individual pristinamycin compounds PI and PII (identical to virginiamycin M1 (VM1); Sigma ref. V2753) were solubilized in DMSO at a concentration of 50 mg/ml and kept at -20° C. Antibiotic discs containing 15 μg pristinamycin or virginiamycin (bioMerieux, ref. 54552; bioMerieux, ref. 54612) were soaked in 1 ml cell culture medium at 4i C for up to 24 h. […] The concentration of individual streptogramin components was calculated based on their fixed 70:30 ratio (w/w; PII/VM1 /dalfopristin: PI/VS1 /quinupristin). […]

SMILES: CN(C)[C@@H]1C(=O)C(C(N)=O)=C(O)[C@@]2(O)C(=O)C3=C(O)c4c(O)cccc4[C@@](C)(O)[C@H]3C[C@@H]12 [TET, tetracycline]
- Induction factor (IF; ratio of maximal expression level to antibiotic-repressed expression level) ([1]; CHO-TWIN195 + pMF111): 12
- SEAP Production (%) ([1]; CHO-TWIN195 + pMF111): 8.57 ± 0.37%
- Induction factor (fold downregulation of SEAP) ([1]; CHO-TWIN1108 + pMF111, 2880 min): 13 fold
- SEAP Production (%) ([1]; CHO-TWIN1108 + pMF111): 7.56 ± 0.01%
- inhibition at 2 µg/mL ([2]; 2 μg/ml, read-out: Repressive effect on the PIT/PPIR system): 17%
- activity at 2 µg/mL ([2]; 2 μg/ml): 87.7 ± 1.76%
- activity at 10 µg/mL [2]: 57.5 ± 5%

SMILES: CC[C@H]1NC(=O)[C@@H](NC(=O)c2ncccc2O)[C@@H](C)OC(=O)[C@H](c2ccccc2)NC(=O)[C@@H]2CC(=O)[C@H](CS[C@@H]3CN4CCC3CC4)CN2C(=O)[C@H](Cc2ccc(N(C)C)cc2)N(C)C(=O)[C@@H]2CCCN2C1=O (stereo in doubt) [quinupristin]
- Release of Pip from PPTR [3]: only partial release

SMILES: C[C@H]1c2cccc(O)c2C(O)=C2C(=O)[C@]3(O)C(O)=C(C(N)=O)C(=O)[C@@H](N(C)C)[C@@H]3[C@@H](O)[C@@H]21 [DOX, doxycycline]
- activity at 2 µg/mL ([2]; 2 μg/ml): 77 ± 6.9%
- activity at 10 µg/mL [2]: 50.5 ± 7.9%

SMILES: CC1=CC(O)CC(=O)Cc2nc(co2)C(=O)N2CCC=C2C(=O)OC(C(C)C)C(C)C=CC(=O)NCC=C1 (stereo not drawn) [PII, pristinamycin II]
- Downregulation of PIT/PPIR-mediated SEAP expression ([4]; CHO-K1, 2 μg/ml): did not display any significant repression activity
- activity at 2 µg/mL ([4]; CHO-K1, inducer 2 μg/ml, assayed 48 hr later, no inducer = 100, read-out: SEAP Production (%)): 96.3 ± 3.2%
